Values of other authors in US20040131694A1, “Pharmaceutical composition for the medical treatment of the benign prostatic hyperplasia, its preparation method and its therapeutic application” (H.P.B. S.A., priority 2002, published 2004).

Test system: Bladder outlet obstruction due to Benign Prostatic Hyperplasia
[1] = Up to 24 weaks of treatment, Tammela and Kontturi 1993

For `CC(C)(C)NC(=O)[C@H]1CC[C@H]2[C@@H]3CC[C@H]4NC(=O)C=C[C@]4(C)[C@H]3CC[C@]12C` [Finasteride], the Daytime frequency [1] is listed as 1.4, the Dysuria [1] is listed as 0.4 and the Hesitancy [1] is listed as 0.5. For the same compound, the Intermittence [1] was 0.7, the Nocturia [1] was 1.5 and the “Prostatic specific antigen (ng. %)” value [1] was 2.9 ng. %. For the same compound, the “Prostatic volume (grs.)” value [1] was 35 gr, the “Q max.” value [1] was 10.3 mL/s and the “Residual urine volume (ml.)” value [1] was 76 cc. The “Sensation of incomplete Voiding” value [1] was 0.9, the Terminal dribbling [1] was 0.4 and the “Total points (I-PSS)” value [1] was 7.1 points. The Urgency [1] was 0.7, the Weak stream [1] was 0.6 and the Residual effect (treatment must be continuous) was “none”.
